Values quoted from earlier work in patent US7585978B2, “Processes of manufacturing substituted-1,4-dihydropyridines, improved aqueous solutions thereof, and processes of manufacturing the solutions” (Navinta LLC, priority 2006, dated 2009).
Entries after “also recorded” stand apart in the source; their conditions may differ. Where a name gives a salt, the structure may show the parent alone.

Key:
[1] = hydrochloride

| Compound | pKa (first of three pKa values) | pKa (second of three pKa values) | solubility in water [1] |
| --- | --- | --- | --- |
| N=C(N)NCCC[C@H](N)C(=O)O [L-arginine] | 2.18 | 9.09 |  |
| COC(=O)C1=C(C)NC(C)=C(C(=O)OCCN(C)Cc2ccccc2)C1c1cccc([N+](=O)[O-])c1 (stereo not drawn) [nicardipine hydrochloride] |  |  | poorly soluble in water; also recorded: very poorly soluble in water |
